From patent publication US20180009797A1, “AZA-ARYL 1H-PYRAZOL-1-YL BENZENE SULFONAMIDES” (ChemoCentryx, Inc., priority 2016, published 2018) come the findings set out here.

The test deals with T1, CCR(9) (Homo sapiens, UniProt P51686).
T1 construct: CCR(9)-expressing cells such as T cell line MOLT-4 cells; host or cells: MOLT-4 T cell line
T1 sequence (P51686 1-369): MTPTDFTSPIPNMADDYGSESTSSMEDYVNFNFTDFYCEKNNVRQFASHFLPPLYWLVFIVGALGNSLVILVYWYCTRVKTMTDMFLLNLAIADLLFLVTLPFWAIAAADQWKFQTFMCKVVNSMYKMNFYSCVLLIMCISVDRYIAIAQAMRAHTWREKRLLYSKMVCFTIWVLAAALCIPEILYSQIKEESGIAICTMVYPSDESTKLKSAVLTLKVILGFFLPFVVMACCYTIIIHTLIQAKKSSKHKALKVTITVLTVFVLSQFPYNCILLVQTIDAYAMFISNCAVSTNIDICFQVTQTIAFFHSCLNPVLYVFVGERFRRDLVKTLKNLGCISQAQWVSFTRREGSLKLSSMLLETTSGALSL
In words: serum chemotaxis (serum migration) assay, MOLT-4 cells in human serum, TECK. Type of test: cell-based. To be noted: read-out: A2. As for the experimental part: In vitro cell chemotaxis assays can be performed (but are not limited to this format) using the 96-well microchamber (called ChemoTX™). The ChemoTX™ system is well known to those skilled in the art as a type of chemotactic/cell migration instrument. In this assay, CCR(9)-expressing cells (such as MOLT-4) are first incubated with a compound of interest, such as a possible CCR(9) antagonist at increasing concentrations. Typically, fifty thousand cells per well are used, but the amount can range from 10^3-10^6 cells per well. The chemokine ligand (for example, CCR(9) ligand TECK, typically at 50 nM (but can range from 5-100 nM)), is placed at the lower chamber and the migration apparatus is assembled. Twenty microliters of test compound-treated cells are then placed onto the membrane. Migration is allowed to take place at 37° C. for a period of time, typically 2.5 hours for CCR(9). At the end of the incubation, the number of cells that migrated across the membrane into the lower chamber is then quantified. The efficacy of a compound as an inhibitor of chemokine-mediated cell migration can be calculated as an IC50 (the concentration needed to reduce cell migration by 50%) or IC90 (for 90% inhibition).
MOLT-4 cells were obtained from the American Type Culture Collection (Manassas, Va.) and cultured in RPMI tissue culture medium supplemented with 10% fetal calf serum (FCS) in a humidified 5% CO2 incubator at 37° C. Recombinant human chemokine proteins TECK was obtained from R&D Systems (Minneapolis, Minn.). ChemoTX® chemotaxis microchambers were purchased from Neuro Probe (Gaithersburg, Md.). CyQUANT® cell proliferation kits were purchased from Molecular Probes (Eugene, Oreg.). Calcium indicator dye Fluo-4 AM was purchased from Molecular Devices (Mountain View, Calif.).
A serum chemotaxis assay was used to determine the efficacy of potential receptor antagonists at blocking the migration mediated through chemokine receptors, such as CCR(9). This assay was performed using the ChemoTX® microchamber system with a 5-μm pore-sized polycarbonate membrane. MOLT-4 cells were collected by centrifugation at 400×g at room temperature, then suspended at 50 million/ml in human serum, containing 50 mM HEPES (final pH of 7.2). The compound being tested or an equivalent volume of its solvent (DMSO) was then added to the cell/serum mixture at a final DMSO concentration of 0.125% (v/v), and this mixture was then incubated together at 37° C. for one hour. Separately, recombinant human TECK was diluted with chemotaxis buffer (HBSS+0.1% BSA), generally spanning a range from 0.1 nM to 500 nM, after which 29 μl of diluted chemokine was placed in the lower wells of the ChemoTX® plate. The 5-μm (pore size) polycarbonate membrane was placed onto the plate, and 20 μL of the cell/compound mixture was transferred onto each well of the membrane. The plates were incubated at 37° C. for 90 minutes, after which the polycarbonate membranes were removed and 5 μl of the DNA-intercalating agent CyQUANT (Invitrogen, Carlsbad, Calif.) was added to the lower wells. The amount of fluorescence, corresponding to the number of migrated cells, was measured using a Spectrafluor Plus plate reader (TECAN, San Jose, Calif.).
The A2 values were calculated from the following equation, comparing the efficacy of the test compound with that of the DMSO-only control at equi-active chemokine levels:
Log(A2)=log [drug(M)]−log [(A′/A)−1]
where A reflects the potency of the agonist in the absence of antagonist and […] reflects the potency of the agonist in the presence of antagonist at a given concentration of drug ([drug(M)]).

Consider `Cc1cc(NS(=O)(=O)c2ccc(C(C)(C)C)cc2)n(-c2cncc3ccccc23)n1`, for which the EC50 was 501 to 2500 nM.

For the compound `Cc1cc(NS(=O)(=O)c2ccc(C(C)(C)C)cc2)n(-c2ccnc3cc(F)ccc23)n1`, the EC50 was 501 to 2500 nM. The same measure for `CC(C)(C)c1ccc(S(=O)(=O)Nc2cc(CF)nn2-c2cccc3ncccc23)cc1`: less than 500 nM. The same measure for `CC(C)(C)c1ccc(S(=O)(=O)Nc2cc(C(F)(F)F)nn2-c2cccc3ncccc23)cc1`: 501 to 2500 nM; for `Cc1cc(NS(=O)(=O)c2ccc(C(C)(C)C)c(Cl)c2)n(-c2cccc3ncccc23)n1`: 501 to 2500 nM; for `Cc1cc(NS(=O)(=O)c2ccc(C(C)(C)C)cc2)n(-c2cccc3c(N)nccc23)n1`: 501 to 2500 nM. With `Cc1cc(NS(=O)(=O)c2ccc(C(C)(C)C)cc2)n(-c2nncc3ccccc23)n1`, the EC50 is 501 to 2500 nM.

In the case of `CC(C)(C)c1ccc(S(=O)(=O)Nc2ccnn2-c2cccc3ncccc23)cc1`, the EC50 was more than 2500 nM. For the compound `Cc1cc(NS(=O)(=O)c2ccc(C(C)(C)C)cc2)n(-c2ccnc3ccccc23)n1`, the EC50 lay within 501 to 2500 nM. Next, `Cc1cc(NS(=O)(=O)c2ccc(C(C)(C)C)cc2)n(-c2n[nH]c(=O)c3ccccc23)n1`: 501 to 2500 nM; `CC(C)c1ccc(S(=O)(=O)Nc2cc(C(F)(F)F)nn2-c2cccc3ncccc23)cc1`: 501 to 2500 nM; `Cc1cc(NS(=O)(=O)c2ccc(C(C)(C)C)c(F)c2)n(-c2ccc(Br)c3ncccc23)n1`: less than 500 nM. For the compound `COc1ccc(-n2nc(C)cc2NS(=O)(=O)c2ccc(C(C)(C)C)c(F)c2)c2cccnc12`, the EC50 is less than 500 nM. The same measure for `Cc1cc(NS(=O)(=O)c2cc(F)c(C(C)(C)C)c(F)c2)n(-c2cccc3ncccc23)n1`: less than 500 nM.

Turning to `Cc1cc(NS(=O)(=O)c2ccc(OC(F)(F)F)cc2)n(-c2cccc3ncccc23)n1`, the EC50 is 501 to 2500 nM.

Regarding `Cc1cc(NS(=O)(=O)c2ccc(C(C)(C)C)cc2)n(-c2ccc(Br)c3ncccc23)n1`, the EC50 lay in the range of 501 to 2500 nM.

For `Cc1cc(NS(=O)(=O)c2ccc(C(C)(C)C)c(F)c2)n(-c2ccc(C#N)c3ncccc23)n1`, the EC50 is less than 500 nM. Regarding `Cc1cc(NS(=O)(=O)c2ccc(C(C)(C)C)cc2)n(-c2ccc(Cl)c3ncccc23)n1`, the EC50 was less than 500 nM. The same measure for `Cc1cc(NS(=O)(=O)c2ccc(C(C)(C)C)cc2)n(-c2cccc3ncccc23)n1`: less than 500 nM; for `Cc1cc(NS(=O)(=O)c2ccc(C(C)(C)C)cc2F)n(-c2cccc3ncccc23)n1`: 501 to 2500 nM; for `CC(C)c1ccc(S(=O)(=O)Nc2cc(C(F)(F)F)nn2-c2cccc3cnccc23)cc1`: 501 to 2500 nM.

As for `CC(C)(C)c1ccc(S(=O)(=O)Nc2cc(CF)nn2-c2cccc3ncccc23)cc1F`, the EC50 is less than 500 nM.

Turning to `Cc1cc(NS(=O)(=O)c2ccc(C(C)(C)C)cc2)n(-c2ccc(C#N)c3ncccc23)n1`, the EC50 is 501 to 2500 nM. The same measure for `Cc1cc(NS(=O)(=O)c2ccc(C(C)(C)C)cc2)n(-c2cnc(N)c3ccccc23)n1`: 501 to 2500 nM; for `Cc1cc(NS(=O)(=O)c2ccc(C(C)(C)C)cc2)n(-c2cnnc3ccccc23)n1`: 501 to 2500 nM; for `Cc1cc(NS(=O)(=O)c2ccc(OC(C)C)cc2)n(-c2cccc3cnccc23)n1`: 501 to 2500 nM. Next, `Cc1cc(-n2nc(C)cc2NS(=O)(=O)c2ccc(C(C)(C)C)cc2)c2cccnc2c1`: 501 to 2500 nM; `CC(C)Oc1ccc(S(=O)(=O)Nc2cc(C(F)(F)F)nn2-c2cccc3cnccc23)cc1`: 501 to 2500 nM. For `Cc1cc(NS(=O)(=O)c2ccc(C(C)(C)C)cc2)n(-c2ccc(F)c3ncccc23)n1`, the EC50 was in the range of 501 to 2500 nM. The same measure for `Cc1ccc2c(-n3nc(C)cc3NS(=O)(=O)c3ccc(C(C)(C)C)cc3)cccc2n1`: less than 500 nM.

Consider `Cc1cc(NS(=O)(=O)c2ccc(C(C)(C)C)cc2)n(-c2ccc(N)c3ncccc23)n1`, for which the EC50 was less than 500 nM. On to `Cc1cc(NS(=O)(=O)c2ccc(OC(C)C)c(F)c2)n(-c2cccc3ncccc23)n1`, for which the EC50 was 501 to 2500 nM. Turning to `Cc1cc(NS(=O)(=O)c2ccc(C(C)(C)C)cc2)n(-c2ccc(C)c3ncccc23)n1`, the EC50 was in the range of 501 to 2500 nM.
